Key:
[1] = biological target: T1, RBL-1 5-Lipoxygenase (Rattus norvegicus, UniProt P12527); assay: RBL-1 5-lipoxygenase assay (10,000×g supernatant from homogenized RBL-1 cells, [14C] arachidonic acid); format: biochemical; conditions: pH 7.0, 37° C., 5 min preincubation, 0.042 mM arachidonic acid; linear regression on three concentrations
T1 construct: supernatant from homogenized RBL-1 cells; endogenous in cells; host or cells: RBL-1 cells (10,000×g supernatant of homogenate)
T1 sequence (P12527 1-673): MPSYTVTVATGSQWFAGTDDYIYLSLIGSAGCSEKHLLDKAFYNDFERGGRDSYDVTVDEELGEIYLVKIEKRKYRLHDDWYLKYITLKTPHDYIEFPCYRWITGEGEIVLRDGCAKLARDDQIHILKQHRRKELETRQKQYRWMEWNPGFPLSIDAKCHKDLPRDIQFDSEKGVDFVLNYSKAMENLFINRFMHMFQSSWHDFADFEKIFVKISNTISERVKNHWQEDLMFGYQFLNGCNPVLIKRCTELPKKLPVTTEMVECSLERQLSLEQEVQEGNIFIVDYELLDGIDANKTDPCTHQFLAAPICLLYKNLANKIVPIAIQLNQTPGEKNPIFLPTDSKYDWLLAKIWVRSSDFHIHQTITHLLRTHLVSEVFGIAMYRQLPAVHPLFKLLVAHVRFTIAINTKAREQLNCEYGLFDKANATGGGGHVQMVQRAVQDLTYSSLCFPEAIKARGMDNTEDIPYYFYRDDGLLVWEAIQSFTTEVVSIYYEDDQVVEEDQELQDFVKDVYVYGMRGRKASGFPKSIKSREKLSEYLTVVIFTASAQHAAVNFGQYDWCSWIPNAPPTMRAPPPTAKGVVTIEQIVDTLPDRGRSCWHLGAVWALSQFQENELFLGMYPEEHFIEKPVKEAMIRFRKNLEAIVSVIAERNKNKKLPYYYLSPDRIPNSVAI
Experimental: The potencies of the compounds as 5-lipoxygenase inhibitors were determined using a RBL-1 5-lipoxygenase assay. The procedure of Jakschik et al. was used (Jakschik, B. A.; Lee, L. H.; Shuffer, G.; Parker, C. W., Prostaglandins, 1978, 16, 733; Jakschik, B. A.; Sun, F. F.; Lee, L. H.; Steinhoff, M. M. Biochem. Biophys. Res. Commun., 1980, 95, 100; […]., Biochem. Biophys. Res. Commun., 1981, 102, 624). The enzyme was prepared as a 10,000×gsupernatant from homogenized RBL-1 cells. Because of variability in the enzyme content from culture to culture, an amount of supernatant was chosen to give a net production of 3300-3800 dpm of 5-HETE under the assay conditions (total cell protein 9-20 μg/assay). All reactions were run in duplicate. In a total volume of 100 μL, the appropriate amount of enzyme was incubated with test compound (prepared in 5% DMSO, 95% 0.2 M Tris, pH 8.5) in a phosphate buffer (45 mM sodium phosphate, 0.83 mM EDTA, 0.083% gelatin, 0.1 mM glutathione, 0.83 mM calcium chloride, 0.012 mM indomethacin) at pH 7.0 and 37° C. for 5 min. The reaction was initiated by the addition of 20 μL of a solution of arachidonic acid in phosphate buffer. […] Remaining products were eluted with methanol/water/acetic acid (70:30:1). Activity was measured as the total radioactivity in the 5-LO products, and inhibition was calculated at (1-D/C)×100%, where D is the activity in the presence of the test compound and C is the control activity.

[2] = times the activity of histamine; cited from earlier work
[3] = cited from earlier work
[4] = test system: inflammatory cells such as polymorphonuclear leukocytes; conditions: cited from earlier work

Row | IC50 [1] | SMILES | also measured
1 | 2.2 µM | CC(c1ccc2ccccc2c1)N(O)C=CC(=O)c1ccc2ccccc2c1 (stereo not drawn) [Example 1b] | 
2 |  | CCCCC/C=C\C\C=C/C=C/C=C/[C@@H](SC[C@H](N)C(=O)O)[C@@H](O)CCCC(=O)O [LTE4] | spasmogen activity relative to histamine [2]: 1000 times
3 |  | CCCCC/C=C\C\C=C/C=C/C=C/[C@@H](SC[C@H](NC(=O)CC[C@H](N)C(=O)O)C(=O)NCC(=O)O)[C@@H](O)CCCC(=O)O [LTC4] | spasmogen activity relative to histamine [2]: 1000 times; effect of inhaled LTC4 [3]: causes the immediate development of symptoms resembling those of an asthmatic attack
4 | 7.7 µM | CC(=O)C=CN(O)Cc1ccc(OCc2ccccc2)cc1 [Example 3a] | 
5 | 2.3 µM | O=C(C=CN(O)Cc1ccccc1)c1ccc2ccccc2c1 [Example 2a, 1-(2-naphthyl)-3-(N-hydoxy-N-benzyl) aminoprop-2-en-1-one] | 
6 | 2.5 µM | O=C(C=CN(O)C1CCCCC1)c1ccc2ccccc2c1 [Example 1c] | 
7 | 1.6 µM | CN(O)C=CC(=O)c1ccc(OCc2ccccc2)cc1 [Example 1a, 1-(4-(Benzyloxy)phenyl)-3-(N-hydoxy-N-methyl)aminoprop-2-en-1-one] | 
8 |  | CCCCC/C=C\C[C@@H](O)/C=C/C=C/C=C\[C@@H](O)CCCC(=O)O [LTB4] | chemotactic activity for inflammatory cells [4]: potent chemotactic factors
9 | 3.1 µM | O=C(C=CN(O)Cc1ccc(OCc2ccccc2)cc1)C1CC1 [Example 1e] | 
10 | 1.1 µM | O=C(C=CN(O)c1ccccc1)c1ccc2ccccc2c1 [Example 2b] | 
11 | 0.44 µM | CN(O)C=CC(=O)c1cc2ccccc2s1 [Example 1i] | 
12 |  | CCCCC/C=C\C\C=C/C=C/C=C/[C@@H](SC[C@H](N)C(=O)NCC(=O)O)[C@@H](O)CCCC(=O)O [LTD4] | spasmogen activity relative to histamine [2]: 1000 times
13 | 0.25 µM | O=C(C=CN(O)Cc1ccccc1)c1ccc(Cl)cc1 [Example 2e] | 
14 | 1.5 µM | O=C(C=CN(O)Cc1ccc2ccccc2c1)C1CC1 [Example 1j] | 

— patent US5110831A, “Vinylogous hydroxamic acids and derivatives thereof as 5-lipoxygenase inhibitors” (Du Pont Merck Pharmaceutical Company, priority 1990, dated 1992)
